Results published in patent US20230142844A1, “USE OF 1,9-DECANEDIOL IN RETARDING UREA HYDROLYSIS” (INSTITUTION OF SOIL SCIENCE, CHINESE ACADEMY OF SCIENCES, priority 2021, published 2023).

Test system: urea hydrolysis in soil
Experiment: Soil culture test: effect of inhibitors applied with urea on urea hydrolysis (urea nitrogen and ammonia nitrogen contents in soil)
Conditions: for contents of ammonia nitrogen in soil (NH4^+-N) / contents of urea nitrogen in soil (Urea-N): flooded paddy soil, 25° C.; for inhibition of urea hydrolysis during the culture period / effect on retarding the hydrolysis efficiency of urea: result in words; for effect on retarding the hydrolysis efficiency of urea: applied with urea to flooded paddy soil
Experimental: 1.1 experimental soil: the type of experimental soil is paddy soil, and the texture is sandy loam soil. It is collected from 0-20 cm topsoil of experimental field in Yingtan City, Jiangxi Province (28° 15′N, 116° 55′E). It is sieved by 2 millimeters (mm), mixed, and reserved.
1.2 test reagent: 1,9-decanediol is customized in market, and a structural formula thereof is C10H22O2. Nitrification inhibitor is dicyandiamide (DCD, a structural formula thereof is C2H4N4) is purchased from Sigma.
1.3 experimental treatment: experimental setting as follows: urea treatment (U); nitrification inhibitor DCD +urea treatment including: DCD-20 mg/kg soil; 1,9-decanediol+urea treatment in the soil including: 1,9-D-100 mg/kg, 1,9-D-200 mg/kg, 1,9-D-500 mg/kg, and 1,9-D-1000 mg/kg. Each treatment is repeated three times. The amount of nitrogen applied is […] nitrogen per kilogram soil.
After the experimental soil is weighed into 100 milliliters (mL) plastic pipe, distilled water is evenly added, and the soil water content is adjusted to 60% of the maximum field water capacity. Then the plastic pipe is sealed with sealing film and uniform holes are pricked to keep air flowing, and pre-cultured in a 25° C. incubator for three days.
After the pre-culture, according to the different experimental treatments, the corresponding urea and inhibitors (1,9-decanediol and DCD) are weighed to form a mixed solution, the mixed solution is evenly applied to soil, then distilled water is added to maintain a flooded state, and cultured at 25° C. […]. The contents of urea nitrogen and ammonia nitrogen in soil are measured on the 1st, 2nd, 3rd, 5th, and 7th days of culture to evaluate the effects of different inhibitors on nitrogen transformation.

[1] = 1,9-decanediol 100 mg/kg in soil + urea, 1 d of culture
[2] = 1,9-decanediol 100 mg/kg in soil + urea, 2 d of culture
[3] = 1,9-decanediol 100 mg/kg in soil + urea, 3 d of culture
[4] = 1,9-decanediol 100 mg/kg in soil + urea, 5 d of culture
[5] = 1,9-decanediol 100 mg/kg in soil + urea, 7 d of culture
[6] = 1,9-decanediol 200 mg/kg in soil + urea, 1 d of culture
[7] = 1,9-decanediol 200 mg/kg in soil + urea, 2 d of culture
[8] = 1,9-decanediol 200 mg/kg in soil + urea, 5 d of culture
[9] = 1,9-decanediol 200 mg/kg in soil + urea, 7 d of culture
[10] = 1,9-decanediol 500 mg/kg in soil + urea, 1 d of culture
[11] = 1,9-decanediol 500 mg/kg in soil + urea, 2 d of culture
[12] = 1,9-decanediol 500 mg/kg in soil + urea, 3 d of culture
[13] = 1,9-decanediol 500 mg/kg in soil + urea, 5 d of culture
[14] = 1,9-decanediol 500 mg/kg in soil + urea, 7 d of culture
[15] = 1,9-decanediol 1000 mg/kg in soil + urea, 1 d of culture
[16] = 1,9-decanediol 1000 mg/kg in soil + urea, 2 d of culture
[17] = 1,9-decanediol 1000 mg/kg in soil + urea, 3 d of culture
[18] = 1,9-decanediol 1000 mg/kg in soil + urea, 5 d of culture
[19] = 1,9-decanediol 1000 mg/kg in soil + urea, 7 d of culture
[20] = DCD 20 mg/kg soil + urea, 1 d of culture
[21] = DCD 20 mg/kg soil + urea, 2 d of culture
[22] = DCD 20 mg/kg soil + urea, 3 d of culture
[23] = DCD 20 mg/kg soil + urea, 5 d of culture
[24] = DCD 20 mg/kg soil + urea, 7 d of culture

CC(O)CCCCCCCCO (stereo not drawn) [1,9-D, 1,9-decanediol]
contents of ammonia nitrogen in soil (NH4^+-N) [1]: 171.9 ± 8.1a
contents of urea nitrogen in soil (Urea-N) [1]: 10.1 ± 0.7c
contents of ammonia nitrogen in soil (NH4^+-N) [2]: 176.8 ± 1.2c
contents of urea nitrogen in soil (Urea-N) [2]: 3.7 ± 1.2cd
contents of ammonia nitrogen in soil (NH4^+-N) [3]: 197.7 ± 7.3ab
contents of urea nitrogen in soil (Urea-N) [3]: 3.4 ± 0.5 days
contents of ammonia nitrogen in soil (NH4^+-N) [4]: 187 ± 8.5 mg/kg
contents of urea nitrogen in soil (Urea-N) [4]: 3.3 ± 0.2c
contents of ammonia nitrogen in soil (NH4^+-N) [5]: 221.7 ± 2.4ab
contents of urea nitrogen in soil (Urea-N) [5]: 2.9 ± 0.5bc
contents of ammonia nitrogen in soil (NH4^+-N) [6]: 150.8 ± 2.8b
contents of urea nitrogen in soil (Urea-N) [6]: 15.2 ± 0.1c
contents of ammonia nitrogen in soil (NH4^+-N) [7]: 173.7 ± 1.9c
contents of urea nitrogen in soil (Urea-N) [7]: 9.1 ± 0.51b
contents of ammonia nitrogen in soil (NH4^+-N) (1,9-decanediol 200 mg/kg in soil + urea, 3 d of culture): 195 ± 9b
contents of ammonia nitrogen in soil (NH4^+-N) [8]: 213.9 ± 3.3ab
contents of urea nitrogen in soil (Urea-N) [8]: 2.8 ± 0.5c
contents of ammonia nitrogen in soil (NH4^+-N) [9]: 221.4 ± 4.4ab
contents of urea nitrogen in soil (Urea-N) [9]: 4.2 ± 1.4ab
contents of ammonia nitrogen in soil (NH4^+-N) [10]: 51 ± 1.1c
contents of urea nitrogen in soil (Urea-N) [10]: 115.6 ± 13b
contents of ammonia nitrogen in soil (NH4^+-N) [11]: 160 ± 6.2 mg/kg
contents of urea nitrogen in soil (Urea-N) [11]: 11.7 ± 0.4b
contents of ammonia nitrogen in soil (NH4^+-N) [12]: 180.8 ± 6.3c
contents of urea nitrogen in soil (Urea-N) [12]: 10.5 ± 0.7b
contents of ammonia nitrogen in soil (NH4^+-N) [13]: 207.3 ± 2.1b
contents of urea nitrogen in soil (Urea-N) [13]: 6.1 ± 0.6a
contents of ammonia nitrogen in soil (NH4^+-N) [14]: 217.3 ± 3.3b
contents of urea nitrogen in soil (Urea-N) [14]: 3.4 ± 0.7bc
contents of ammonia nitrogen in soil (NH4^+-N) [15]: 46.3 ± 2.1c
contents of urea nitrogen in soil (Urea-N) [15]: 139 ± 7.2a
contents of ammonia nitrogen in soil (NH4^+-N) [16]: 92.9 ± 0.4e
contents of urea nitrogen in soil (Urea-N) [16]: 73.4 ± 3.8a
contents of ammonia nitrogen in soil (NH4^+-N) [17]: 152 ± 1.4 mg/kg
contents of urea nitrogen in soil (Urea-N) [17]: 14.8 ± 1.7a
contents of ammonia nitrogen in soil (NH4^+-N) [18]: 196.7 ± 2c
contents of urea nitrogen in soil (Urea-N) [18]: 5 ± 0.5b
contents of ammonia nitrogen in soil (NH4^+-N) [19]: 203.2 ± 7c
contents of urea nitrogen in soil (Urea-N) [19]: 5.4 ± 0.5a
inhibition of urea hydrolysis during the culture period (addition of 500 mg/kg): can significantly inhibit the urea hydrolysis
inhibition of urea hydrolysis during the culture period (addition of 1000 mg/kg): can significantly inhibit the urea hydrolysis
effect on retarding the hydrolysis efficiency of urea: can retard the hydrolysis efficiency of urea
efficiencies of retarding urea hydrolysis from large to small (ranking of treatments (1,9-D 100-1000 mg/kg, DCD 20 mg/kg soil)): 1, 9-D-1000>1, 9-D-500>1, 9-D-200>1, 9-D-100>DCD

N#CN=C(N)N [DCD, dicyandiamide, reference compound]
contents of ammonia nitrogen in soil (NH4^+-N) [20]: 176.9 ± 5.5a
contents of urea nitrogen in soil (Urea-N) [20]: 4.5 ± 0.4c
contents of ammonia nitrogen in soil (NH4^+-N) [21]: 183.6 ± 4b
contents of urea nitrogen in soil (Urea-N) [21]: 1.6 ± 0.3 days
contents of ammonia nitrogen in soil (NH4^+-N) [22]: 203.1 ± 1.6ab
contents of urea nitrogen in soil (Urea-N) [22]: 1.4 ± 0.2e
contents of ammonia nitrogen in soil (NH4^+-N) [23]: 208.4 ± 1.6b
contents of urea nitrogen in soil (Urea-N) [23]: 1.2 ± 0.1 days
contents of ammonia nitrogen in soil (NH4^+-N) [24]: 217.9 ± 4.3b
contents of urea nitrogen in soil (Urea-N) [24]: 2.9 ± 0.4bc
effect on retarding the hydrolysis efficiency of urea: no effect
